# Laboratory results reported in patent US3943137A, “Acronycine derivatives” (University of Kansas Endowment Association, priority 1973, dated 1976).
# Like-named read-outs stand apart in the source and are kept apart here.
# How the values were obtained:
# [1] = subcutaneous; cited from earlier work
# Solubility = assay type: physicochemical; settings: water
# mouse neoplasms = settings: cited from earlier work
# X-5563 myeloma = settings: oral and subcutaneous routes; cited from earlier work
# C-1498 leukemia = settings: oral and subcutaneous routes; cited from earlier work
# [2] = acronycine free base; cited from earlier work
# [3] = intravenous; several instances; autopsy; cited from earlier work
# adenocarcinoma 755 = settings: oral and subcutaneous routes; cited from earlier work
structure (smiles),measurement,setting,value
COc1cc2c(c3c1c(=O)c1ccccc1n3C)C=CC(C)(C)O2 [acronycine],skin irritation or alopecia,[1],no evidence of skin irritation or alopecia
same,solubility (qualitative),"Solubility; acetone, benzene, listed as base","soluble in acetone and benzene, insoluble in water"
same,solubility,Solubility; read-out: solubility in water,2 to 3 µg/mL
same,reduction in the size of tumors,"mouse neoplasms; aqueous suspension, Svoboda et al",significant reductions in the size of a number of tumors
same,activity in delayed therapy experiments,mouse neoplasms; delayed therapy,significant activity in delayed therapy experiments
same,"antitumor activity, intravenous","mouse neoplasms; intravenous, free base",only minimum activity
same,effectiveness by routes of administration,mouse neoplasms; various routes,effective by various routes of administration
same,tumors against which significant activity was demonstrated,"mouse neoplasms; wide range of dose levels, Svoboda laboratory",12 of 17
same,activity against X-5563 myeloma,X-5563 myeloma,significant activity
same,activity against C-1498 leukemia,C-1498 leukemia,significant activity
same,solubility,[2],2 to 3 µg/mL
same,blockage of the circulatory system,[3],"blockage of the circulatory system was evidenced, autopsy revealing an actual aortic block by the compound itself"
same,activity against adenocarcinoma 755,adenocarcinoma 755,significant activity
